The values below come from patent US20220354957A1, “PEPTIDES TARGETING MACROPHAGES, AND CONJUGATES, COMPOSITIONS, AND USES THEREOF” (Twinpig Biolab, Inc., priority 2021, published 2022).

One data set concerns M2 macrophages. The data set is described as follows: Apoptosis and caspase-3 expression in THP-1-derived macrophages. The class given is cell-based, human. How it is done: THP-1 cells were differentiated into macrophages by 24 h incubation with 100 nM PMA and polarized in M2 macrophages by incubation with 20 ng/ml of IL-4 and 20 ng/ml of IL-13 for 72 h. Polarized cells were treated with increasing concentrations of TAMpep and fragments of TAMpep (0.05-20 μM) for 24 h. Cell viability was analyzed using the CCK-8 assay: CCK-8 reagent (Enzo Life Sciences) was added to each well; incubation was continued for 2 hours, and absorbance was measured at 450 nm with a microplate reader (Molecular Devices).
THP-1 cells were seeded on cover glasses in 24-well plates and differentiated into M0, M1 and M2 macrophages. Cells were treated with 1 μM TAMpepK and MpepK for 1 h and incubated for 24 h after remove of peptides. Cells were washed, fixed with 4% paraformaldehyde for 10 minutes at […] and blocked with 0.1% normal goat serum for 1 hour. The cover glasses were then incubated with anti-caspase-3 antibody (1:50, rabbit polyclonal, Abcam) overnight at 4° C., and then washed and stained with Alexa 594-labelled goat anti-rabbit lgG (1:500, Invitrogen) at 37° C. for 1 hr. The cover glasses were mounted in Vectashield mounting medium (Vector Laboratories) with DAPI to visualize nuclei. Images photographed by fluorescence microscope (Leica).

Another data set relates to TRAMP-C2 cells. The data set is described as follows: Mouse model of prostate cancer (subcutaneous TRAMP-C2). It counts as in vivo. The source says: (§1) BALB/c and C57BL/6 (B6) wild-type mice were purchased from DBL. For the subcutaneous tumor model of melanoma and prostate cancer, CT26 (3×10^5 cells/mouse), B16F10 (1×10^6 cells/mouse) and TRAMP-C2 cells (1×10^6 cells/mouse) were mixed with Matrigel matrix (Corning) and inoculated subcutaneously into the right flank of the mice, and 4T1 (1×10^5 cells/mouse) cells mixed with Matrigel matrix and inoculated into a 4th mammary fat pad of the mice. TAMpepK, and MpepK peptides (200 nmol/kg) were injected intraperitoneally every 3 days, beginning at day 7 after tumor inoculation, and tumor volume was measured by electronic caliper. All tumor tissues were harvested after the end of the study and tumor weight was measured by an electronic balance.
Cells were harvested and lysed in PRO-PREP protein extraction solution (iNtRON, Bio Inc, Sungnam, Korea). Protein concentrations were measured with a Bradford Protein Assay Reagent kit (Bio-Rad, Richmond, CA, USA). Proteins were fractionated by 10% SDS-polyacrylamide gels electrophoresis (PAGE), and transferred onto polyvinylidene difluoride (PVDF) membranes. These were incubated with anti-arginase 1, anti-CD206, anti-caspase 3, anti-E-cadherin, anti-fibronectin, anti-PCNA, anti-TGF-β, anti-MMP9, and anti-β-actin Ab as primary antibodies. Goat anti-rabbit horseradish peroxidase-conjugated IgG or goat anti-mouse horseradish peroxidase-conjugated IgG (Abcam, Cambridge, Mass., USA) served as secondary antibodies. Protein bands were detected with a chemiluminescence reagent kit (SurModics).

Another data set relates to 4T1. In words: 4th mammary orthotopic mouse model of breast cancer (4T1). The class given is in vivo.
Text: as §1
Total RNA was extracted using Easy-Blue reagent. Concentrations of RNA were determined and quantified by measuring absorbance at 260 and 280 nm with a spectrophotometer. Complementary DNA (cDNA) was synthesized from total RNA using a Maxime RT PreMix kit (iNtRON). Real-time PCR analysis was performed with SYBR Green Master Mix. PCR conditions were forty-five cycles at 95° C. for 5 min, followed by 95° C. for 10 sec, 60° C. for 10 sec and 72° C. for 10 sec. mRNA expression were quantified in triplicate. Data were measured with CFX Software (Bio-Rad). GAPDH and β-actin were used as internal controls.

Where [1] appears, read: TRAMP-C2 in C57BL6J mice, i.p. every 3 days, vs PBS group.

Take `CC[C@H](C)[C@H](NC(=O)[C@H](CC(C)C)NC(=O)[C@H](C)NC(=O)[C@@H]1CCCN1C(=O)[C@H](CC(C)C)NC(=O)CNC(=O)[C@@H](NC(=O)[C@@H](NC(=O)[C@H](CC(C)C)NC(=O)[C@@H](NC(C)=O)C(C)C)[C@@H](C)O)[C@@H](C)O)C(=O)N[C@@H](CO)C(=O)N[C@@H](Cc1c[nH]c2ccccc12)C(=O)N[C@H](C(=O)N[C@@H](CCCCN)C(=O)N[C@@H](CCCNC(=N)N)C(=O)N[C@@H](CCCCN)C(=O)N[C@@H](CCCNC(=N)N)C(=O)N[C@@H](CCC(N)=O)C(=O)N[C@@H](CCC(N)=O)C(=O)NCC(=O)NCC(=O)NCC(=O)NCC(=O)N[C@@H](CO)C(=O)N[C@H](CCCCN)C(=O)N[C@H](CC(C)C)C(=O)N[C@H](C)C(=O)N[C@H](CCCCN)C(=O)N[C@H](CC(C)C)C(=O)N[C@H](C)C(=O)N[C@H](CCCCN)C(=O)N[C@H](CCCCN)C(=O)N[C@H](CC(C)C)C(=O)N[C@H](C)C(=O)N[C@H](CCCCN)C(=O)N[C@H](CC(C)C)C(=O)N[C@H](C)C(=O)N[C@H](CCCCN)C(=O)O)[C@@H](C)CC` [MpepK]: the “expression of caspase-3 in M2 macrophages compared to other subtype macrophages” value in the data set with M2 macrophages (1 μM, 1 h, then 24 h) is listed as “increased”. In addition, the “apoptosis in M2 macrophages compared to M0 and M1 macrophages” value with M2 macrophages (0.01-10 μM) is listed as “induced apoptosis”. Moreover, in the data set on TRAMP-C2 cells (setting [1]), the tumor volume result is “significantly reduced” and the tumor weight result is given as “significantly reduced”. For the same compound, the “body weight of mice” value in the data set on TRAMP-C2 cells (TRAMP-C2 prostate cancer model) is given as “did not significantly change”. Moreover, in the data set on TRAMP-C2 cells (prostate cancer model), the “E-cadherin (epithelial cell marker) in tumor tissues” value is “increased”; the “expression of PCNA (proliferative marker) in tumor tissues” value was “reduced”; the “expression of TGF-β and MMP9 in tumor tissues” value is “reduced”; the “vimentin and fibronectin (mesenchymal marker) in tumor tissues” value is recorded as “reduced”. In addition, in the data set on 4T1 (compared to PBS), the “gene expression of arginase 1 (M2 macrophage marker)” value is given as “significantly reduced”. In the data set on 4T1 (vs PBS group), the lung metastasis entry is listed as “decreased”, the tumor volume result is given as “decreased” and the tumor weight entry is on record as “decreased”.
